From US10881110B2, “Herbicidal compositions comprising isoxazolo[5,4-b]pyridines” (BASF SE, priority 2014, dated 2021)
Like-named read-outs stand apart in the source and are kept apart here.

Columns and labels:
CONAR = assay: greenhouse post-emergence herbicidal test; assay type: in vivo, Convolvulus arvensis; design: key: rating on a scale from 0 to 100
Outline: (§1)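 Combination activity judged against additive expectation by Colby, E=X+Y−(X·Y/100), from 0–100 damage ratings taken 20 days post-spray. Plants at 1–15 cm in loamy sand (69.9% sand) were sprayed with components formulated as 10% w/w emulsion concentrate in water.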

GERDI = assay: greenhouse post-emergence herbicidal test; assay type: in vivo, Geranium dissectum; design: key to herbicidal activity against GERDI found: rating on a scale from 0 to 100; settings: post emergence
Outline: as §1

[1] = a.i. g/ha: I.1 7.8, B.67 125, 20 days after treatment
[2] = a.i. g/ha: I.1 15.6, B.67 125, 20 days after treatment
[3] = a.i. g/ha: I.1 31.25, B.67 125, 20 days after treatment
[4] = a.i. g/ha: I.1 62.5, B.67 125, 20 days after treatment
[5] = application rate a.i.: I.1 62.5 g/ha, B.30 (imazamox) 3.75 g/ha, alone or as mixture (composition 1.030)

Question: Which “herbicidal activity against CONAR found” value (CONAR; 31.25 g/ha a.i.) does the source give for `O=C(O)c1cc(C2CC2)nc2onc(C3CC3)c12` [I.1] here?
Answer: The value was 40.

Question: What about the “herbicidal activity against CONAR found” value (CONAR; 62.5 g/ha a.i.) of the same compound?
Answer: Its value is 60.

Question: And the “herbicidal activity against CONAR found” value (CONAR; 125 g/ha a.i.)?
Answer: Its value is 70.

Question: And the “herbicidal activity against CONAR found” value (CONAR; 6 days after treatment, g/ha a.i.: I.1 31.25, naptalam 50, mixture 31.25+50)?
Answer: Its value is 5.

Question: What about the “herbicidal activity against CONAR found” value (CONAR; 6 days after treatment, g/ha a.i.: I.1 31.25, naptalam 100, mixture 31.25+100) of the same compound?
Answer: Its value is 5.

Question: And the “herbicidal activity against CONAR found” value (CONAR; 6 days after treatment, g/ha a.i.: I.1 31.25, naptalam 200, mixture 31.25+200)?
Answer: Its value is 5.

Question: What about the “herbicidal activity against CONAR found” value (CONAR; 6 days after treatment, g/ha a.i.: I.1 62.5, B.96 140, mixture 62.5+140) of the same compound?
Answer: The value was 65.

Question: What about the “herbicidal activity against CONAR found” value (CONAR; 6 days after treatment, g/ha a.i.: I.1 125, naptalam 100, mixture 125+100) of the same compound?
Answer: The value was 70.

Question: What about the “herbicidal activity against CONAR found” value (CONAR; [1]) of the same compound?
Answer: Its value is 0%.

Question: And the “herbicidal activity against CONAR found” value (CONAR; [2])?
Answer: Its value is 0%.

Question: And the “herbicidal activity against CONAR found” value (CONAR; a.i. g/ha: I.1 20.8, B.67 62.5, 20 days after treatment)?
Answer: The value was 0%.

Question: What about the “herbicidal activity against CONAR found” value (CONAR; [3]) of the same compound?
Answer: Its value is 0%.

Question: What about the “herbicidal activity against CONAR found” value (CONAR; a.i. g/ha: I.1 31.25, B.69 25, 20 days after treatment) of the same compound?
Answer: Its value is 70%.

Question: And the “herbicidal activity against CONAR found” value (CONAR; a.i. g/ha: I.1 62.5, B.67 62.5, 20 days after treatment)?
Answer: Its value is 25%.

Question: What about the “herbicidal activity against CONAR found” value (CONAR; [4]) of the same compound?
Answer: The value was 0%.

Question: What about the “herbicidal activity against CONAR found” value (CONAR; a.i. g/ha: I.1 62.5, B.69 25, 20 days after treatment) of the same compound?
Answer: The value was 65%.

Question: And the “herbicidal activity against CONAR found” value (CONAR; a.i. g/ha: I.1 62.5, B.76 225, 20 days after treatment)?
Answer: Its value is 65%.

Question: What about the “herbicidal activity against CONAR found” value (CONAR; a.i. g/ha: I.1 62.5, B.77 75, 20 days after treatment) of the same compound?
Answer: The value was 25%.

Question: What about the “herbicidal activity against CONAR found” value (CONAR; a.i. g/ha: I.1 62.5, B.80 250, 20 days after treatment) of the same compound?
Answer: The value was 25%.

Question: What about the “herbicidal activity against CONAR found” value (CONAR; application rate a.i.: I.1 31.25 g/ha, B.139 (pyroxasulfone) 12.5 g/ha, alone or as mixture (composition 1.139)) of the same compound?
Answer: Its value is 30.

Question: What about the “herbicidal activity against CONAR found” value (CONAR; application rate a.i.: I.1 31.25 g/ha, B.139 (pyroxasulfone) 25 g/ha, alone or as mixture (composition 1.139)) of the same compound?
Answer: Its value is 30.

Question: And the “herbicidal activity against CONAR found” value (CONAR; [5])?
Answer: Its value is 25.

Question: What about the “herbicidal activity against CONAR found” value (CONAR; application rate a.i.: I.1 62.5 g/ha, B.84 (paraquat-dichloride) 17.5 g/ha, alone or as mixture (composition 1.84)) of the same compound?
Answer: The value was 45.

Question: What about the “herbicidal activity against CONAR found” value (CONAR; application rate a.i.: I.1 125 g/ha, B.113 (glyphosate) 33.75 g/ha, alone or as mixture (composition 1.113)) of the same compound?
Answer: Its value is 80.

Question: What about the pest or weed control at 62.5 g/ha (GERDI; Geranium dissectum, post-emergence, 480 h, 62.5 g/ha a.i., read-out: herbicidal activity against GERDI found) of the same compound?
Answer: The pest or weed control at 62.5 g/ha was 90%.

Question: What about the pest or weed control at 31.25 g/ha (GERDI; Geranium dissectum, post-emergence, 480 h, I.1 31.25 g/ha a.i., read-out: herbicidal activity against GERDI found) of the same compound?
Answer: The pest or weed control at 31.25 g/ha was 50%.

Question: And the pest or weed control at 62.5 g/ha (GERDI; Geranium dissectum, post-emergence, 480 h, I.1 62.5 g/ha a.i., read-out: herbicidal activity against GERDI found)?
Answer: The pest or weed control at 62.5 g/ha was 55%.

Question: What about the pest or weed control at 15.625 g/ha (GERDI; Geranium dissectum, post-emergence, 480 h, single active, 15.625 g/ha a.i., read-out: herbicidal activity against GERDI found) of the same compound?
Answer: Its pest or weed control at 15.625 g/ha is 0%.

Question: And the pest or weed control at 31.25 g/ha (GERDI; Geranium dissectum, post-emergence, 480 h, single active, 31.25 g/ha a.i., read-out: herbicidal activity against GERDI found)?
Answer: The pest or weed control at 31.25 g/ha was 10%.

Question: And the pest or weed control at 62.5 g/ha (GERDI; Geranium dissectum, post-emergence, 480 h, single active, 62.5 g/ha a.i., read-out: herbicidal activity against GERDI found)?
Answer: The pest or weed control at 62.5 g/ha was 60%.

Question: What about the pest or weed control at 125 g/ha (GERDI; Geranium dissectum, post-emergence, 480 h, single active, 125 g/ha a.i., read-out: herbicidal activity against GERDI found) of the same compound?
Answer: The pest or weed control at 125 g/ha was 70%.

Question: What about the “herbicidal activity against GERDI found” value (GERDI; I.1 15.6 g/ha, B.103 7.5 g/ha a.i.) of the same compound?
Answer: Its value is 0.

Question: What about the “herbicidal activity against GERDI found” value (GERDI; I.1 15.62 g/ha, B.89 25 g/ha a.i.) of the same compound?
Answer: The value was 0.

Question: And the “herbicidal activity against GERDI found” value (GERDI; I.1 31.25 g/ha, B.103 7.5 g/ha a.i.)?
Answer: The value was 30.

Question: What about the “herbicidal activity against GERDI found” value (GERDI; I.1 31.25 g/ha, B.103 15 g/ha a.i.) of the same compound?
Answer: Its value is 30.

Question: What about the “herbicidal activity against GERDI found” value (GERDI; I.1 62.5 g/ha, B.103 7.5 g/ha a.i.) of the same compound?
Answer: Its value is 60.

Question: And the “herbicidal activity against GERDI found” value (GERDI; I.1 62.5 g/ha, B.103 15 g/ha a.i.)?
Answer: The value was 60.

Question: And the “herbicidal activity against GERDI found” value (GERDI; I.1 62.5 g/ha, B.167 125 g/ha a.i.)?
Answer: The value was 60.

Question: What about the “herbicidal activity against GERDI found” value (GERDI; I.1 62.5 g/ha, B.88 1 g/ha a.i.) of the same compound?
Answer: Its value is 0.

Question: And the “herbicidal activity against GERDI found” value (GERDI; I.1 62.5 g/ha, B.88 2 g/ha a.i.)?
Answer: Its value is 0.

Question: And the “herbicidal activity against GERDI found” value (GERDI; I.1 62.5 g/ha, B.89 12.5 g/ha a.i.)?
Answer: Its value is 0.

Question: What about the “herbicidal activity against GERDI found” value (GERDI; I.1 62.5 g/ha, B.89 25 g/ha a.i.) of the same compound?
Answer: Its value is 0.

Question: And the “herbicidal activity against GERDI found” value (GERDI; I.1 62.5 g/ha, B.95 1 g/ha a.i.)?
Answer: The value was 0.

Question: And the “herbicidal activity against GERDI found” value (GERDI; I.1 62.5 g/ha, B.95 2 g/ha a.i.)?
Answer: The value was 0.

Question: What about the “herbicidal activity against GERDI found” value (GERDI; [1]) of the same compound?
Answer: Its value is 0%.

Question: What about the “herbicidal activity against GERDI found” value (GERDI; [2]) of the same compound?
Answer: The value was 0%.

Question: What about the “herbicidal activity against GERDI found” value (GERDI; a.i. g/ha: I.1 31.25, B.190 62.5, 20 days after treatment) of the same compound?
Answer: Its value is 30%.

Question: What about the “herbicidal activity against GERDI found” value (GERDI; [3]) of the same compound?
Answer: The value was 30%.

Question: What about the “herbicidal activity against GERDI found” value (GERDI; a.i. g/ha: I.1 31.25, B.67 125, 20 days after treatment, sub-table r36-r43) of the same compound?
Answer: Its value is 30%.

Question: What about the “herbicidal activity against GERDI found” value (GERDI; [4]) of the same compound?
Answer: The value was 40%.

Question: What about the “herbicidal activity against GERDI found” value (GERDI; application rate a.i.: I.1 31.25 g/ha, B.100 (isoxaflutole) 12.5 g/ha, alone or as mixture (composition 1.100)) of the same compound?
Answer: The value was 60.

Question: And the “herbicidal activity against GERDI found” value (GERDI; application rate a.i.: I.1 31.25 g/ha, B.40 (imazethapyr) 7.5 g/ha, alone or as mixture (composition 1.40))?
Answer: Its value is 30.

Question: What about the “herbicidal activity against GERDI found” value (GERDI; application rate a.i.: I.1 62.5 g/ha, B.100 (isoxaflutole) 12.5 g/ha, alone or as mixture (composition 1.100)) of the same compound?
Answer: The value was 65.

Question: And the “herbicidal activity against GERDI found” value (GERDI; [5])?
Answer: Its value is 85.
